Key:
[1] = tested on: PC-3 (human prostate adenocarcinoma); assay: In vivo anticancer activity, PC-3 tumor transplantation model; set-up: species or system BALB/c nude mice (human tumor xenograft); settings: for IR (%): Table 21, b.i.wk(Mon, Thu), 3 wks, ip
Description: (§1) Male BALB/c nude mice (4-week old) used in human tumor transplantation studies were purchased from Central Animal Laboratory Inc. (Korea) or Orient Bio Inc. (Korea). The animals were permitted ad libitum access to sterile feed and water in a sterile breeding system at 23+0.5° C.
(§2) For use in tumor transplantation studies, the human cancer cell lines HCT116 (human colorectal carcinoma, CCL-247), PC-3 (human prostate adenocarcinoma, CRL-1435), and A549 (human lung carcinoma, CCL-185) were purchased from ATCC (American Type Culture Collection, Rockville, Md., USA).
(§3) HCT116 cells were cultured in an air incubator under conditions of 37° C. and 5% CO2 using McCoy'SA medium (Gibco BRL) containing 10% heat-inactivated fetal bovine serum (Gibco BRL) and 1% antibiotics-antymycotics (Gibco BRL). Cell lines other than the HCT116 cell line were cultured in an air incubator under conditions of 37° C. and 5% CO2 using RPM1640 medium (Gibco BRL) containing 10% heat-inactivated fetal bovine serum (Gibco BRL) and 1% antibiotics-antymycotics (Gibco BRL).
(§4) Studies on the in vivo transplantation of human cancer cells were carried out in the following manner. Human cancer cells (HCT116, PC-3, and A549) that proliferated in vitro were injected subcutaneously into the abdominal region of BALB/c nude mice and allowed to proliferate in vivo. 20-25 days after the injection, the mice were sacrificed by cervical dislocation, and the solid cancer that proliferated in each of the mice was isolated aseptically, and connective or necrotic tissue and skin was removed therefrom, thus collecting a fresh cancer tissue. 50 mg of a fragment was taken aseptically from the cancer tissue and inserted into a 16-gauge trocar which was then transplanted subcutaneously into the upper abdominal region of mice.
(§5) 15-30 days after the human cancer cell lines have been transplanted into the BALB/c nude mice, only mice in which the cancer cells have proliferated to a given size were selected and used in the experiment. When the tumor size in each of the test groups reached 100-200 mm^3 after cancer cell transplantation, the experiment was started.
(§6) The anticancer effect of each drug was evaluated based on the inhibition rate (IR %) of tumor volume that indicates the tumor volume at reference date in comparison with control groups. […] Tumor size=(short diameter)×(long diameter)/2 I.R.(%)=[1−(mean tumor size of drug-administered group)/(mean tumor size of control group)]×100

[2] = tested on: HCT116 (human colorectal carcinoma); assay: In vivo anticancer activity, HCT116 tumor transplantation model; set-up: species or system BALB/c nude mice (human tumor xenograft)
Description: as §1, §2, §3, §4, §5, §6

[3] = target: P450 (CYP3A4) (Homo sapiens, UniProt P08684); assay: P450 (CYP3A4) inhibitory activity (BFC fluorescent substrate); format: in vitro ADME; settings: FIG. 6; in words
Sequence of P450 (CYP3A4) (P08684 whole entry, species assumed): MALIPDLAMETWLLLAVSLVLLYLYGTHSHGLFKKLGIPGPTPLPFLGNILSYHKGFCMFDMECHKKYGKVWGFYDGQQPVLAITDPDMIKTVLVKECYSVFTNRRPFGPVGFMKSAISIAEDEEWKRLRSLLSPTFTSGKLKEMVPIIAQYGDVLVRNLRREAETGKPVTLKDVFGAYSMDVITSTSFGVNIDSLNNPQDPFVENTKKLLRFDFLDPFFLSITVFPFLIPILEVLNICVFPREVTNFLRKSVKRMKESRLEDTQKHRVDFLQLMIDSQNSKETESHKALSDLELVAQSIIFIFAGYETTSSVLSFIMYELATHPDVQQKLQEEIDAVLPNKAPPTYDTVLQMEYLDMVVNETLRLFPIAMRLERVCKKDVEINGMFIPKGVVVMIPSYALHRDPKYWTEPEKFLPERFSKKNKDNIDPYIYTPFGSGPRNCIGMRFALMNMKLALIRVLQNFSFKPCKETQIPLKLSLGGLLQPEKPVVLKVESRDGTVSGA
Description: P450 (CYP3A4) is a metabolic enzyme, and non-inhibition of the enzyme by a test compound means that the test substance has a low possibility of causing side effects by interaction with other drugs. Each of compounds used in the test was dissolved in DMSO (10 mg/ml), and the dilution of each test substance to 2×10^−2 mg/ml was additionally performed in 200 μl (micro-liter) of a test system containing an assay buffer. The final solvent concentration was not higher than 2%. The CYP3A4 protein inhibitory test system included a total assay volume (100 μl (micro-liter)) of a NADPH production system (3.3 mM glucose-6-phosphate, 0.4 units/ml glucose-6-phosphate dehydrogenase, 1.3 mM NADP+ and 3.3 mM MgCl2.6H2O in assay buffer) and a test compound in each well of a 96-well plate. After pre-incubation at 37° C. for 10 minutes, 100 μl (micro-liter) of a KPO4 assay buffer containing […] P450 protein and 50 uM BFC (7-benzyloxy-trifluoromethylcoumarin) fluorescent probe substrate was added to the test system, and an enzyme reaction in the test system having a total assay volume of 200 μl (micro-liter) was initiated. […] Irradiation with fluorescence was carried out at an excitation wavelength of 409 nm and an emission wavelength of 530 nm.

[4] = tested on: A549 (human lung carcinoma); assay: In vivo anticancer activity, A549 tumor transplantation model; set-up: species or system BALB/c nude mice (human tumor xenograft); settings: for IR (%): Table 20, b.i.wk(Mon, Thu), 3 wks, ip
Description: as §1, §2, §3, §4, §5, §6

[5] = tested on: HL60 cell line; assay: Inhibitory effect on growth of HL60 cell line (MTT); format: cell-based; settings: Homo sapiens, HL-60, 72 h, 3 days culture
Description: In the culture of HL60 cells, 10% FBS-containing RPMI1640 medium was used Each of test substances was serially diluted in DMSO to a concentration of 10 mg/ml and serially diluted in PBS to a final concentration ranging from 100 μg/ml to 0.03 μg/ml. 20 μl (micro-liter) of each of the serially diluted test substances and 180 μl (micro-liter) of a medium containing 60×10^4 cells/ml were added to a 96-well plate and cultured under conditions of 37° C. and 5% CO2 for 3 days. After completion of the culture, 50 μl (micro-liter) of a solution of 1.25 mg/ml MTT (3-(4,5-dimethylthiazol-2-yl)-2,5-diphenyltetrazolium bromide) in PBS was added to each well of the plate and incubated at 37° C. for 3 hours. The formed formazan crystal was dissolved in 150 μl (micro-liter) of DMSO, and the absorbance at 570 nm was measured.

[6] = Maximum tolerated dose in the HCT116 xenograft experiments; settings: BALB/c nude, mouse, in vivo, ip
[7] = target: HDAC enzymes; assay: Effects against HDAC enzymes (BIOMOL kit, Hela nuclear extract); format: biochemical; settings: 37° C. 1 hour
Description: To measure effects against HDAC enzymes, a kit (BIOMOL International, LP) was used Each of test substances was dissolved in DMSO to a concentration of 10 mg/ml, and an assay buffer, an enzyme solution, a substrate and a staining reagent were prepared. […] Also, the staining reagent was a mixture of assay buffer (19/20), developer (1/20) and TSA (1/100). The assay buffer, the enzyme solution, the test substance and the substrate were added sequentially to a 96-well plate, stirred on a rocker for 3 minutes, and then incubated at 37° C. for 1 hour. After completion of the incubation, the staining reagent was added, and the mixture was stirred on a rocker for 1 minute and then incubated at 37° C. for 20 minutes (the staining reagent was mixed before addition).

[8] = BALB/c nude, mouse, in vivo, ip, 2 weeks
[9] = Table 18, 80 mg/kg/day, qd x 5, 2 wks, ip

CN1CCN(C(=O)N(CCCCCCC(=O)NO)c2ccc(-c3ccc4cnn(C)c4c3)cc2)CC1 [Compound 312, N-(7-(hydroxyamino)-7-oxoheptyl)-4-methyl-N-(4-(1-methyl-1H-indazol-6-yl)phenyl)piperazine-1-carboxamide]
IR (%) ([1]; 60 mg/kg): 39%
IR (%) ([1]; 80 mg/kg): 39%
IR (%) ([1]; 100 mg/kg): 59%
inhibitory effects against prostate cancer (PC-3) compared to LBH 589 ([1]; twice a week for 3 weeks, in words): excellent inhibitory effects
IR (%) ([2]; Table 18, 20 mg/kg/day, qd x 5, 2 wks, ip): 51%
IR (%) ([2]; Table 18, 40 mg/kg/day, qd x 5, 2 wks, ip): 58%
IR (%) ([2]; Table 18, 60 mg/kg/day, qd x 5, 2 wks, ip): 70%
IR (%) [2, 9]: 81%
IR (%) ([2]; Table 22, 150 mg/kg, b.i.wk(Mon, Thu), 3 wks, p.o): 52%
IR (%) ([2]; Table 22, 180 mg/kg, b.i.wk(Mon, Thu), 3 wks, p.o): 55%
IR (%) ([2]; Table 22, 210 mg/kg, b.i.wk(Mon, Thu), 3 wks, p.o): 69%
colon cancer (HCT 116) inhibitory effect compared to control drugs ([2]; ip, qd x 5, 2 wks, in words): excellent colon cancer inhibitory effects
inhibitory effect against colon cancer (HCT116) upon oral administration compared to LBH 589, SAHA and MGCD0103 ([2]; oral, twice a week for 3 weeks, in words): excellent inhibitory effect
P450 3A4 inhibition [3]: did not inhibit
P450 3A4 inhibitory activity relative to LBH 589 [3]: lower than that of LBH 589
IR (%) ([4]; 60 mg/kg): 50%
IR (%) ([4]; 80 mg/kg): 56%
IR (%) ([4]; 100 mg/kg): 71%
inhibitory effect against non-small cell lung cancer (A549) ([4]; administered twice a week, in words): excellent inhibitory effect
IC50 [5]: 50 to 100 nM

O=C(/C=C/c1cccc(S(=O)(=O)Nc2ccccc2)c1)NO [PXD 101, Belinostat, reference compound]
IR (%) [2, 9]: 38%
MTD at 2 weeks [6]: 80 mg/kg
IC50 [7]: 100 to 200 nM
IC50 [5]: 100 to 200 nM

O=C(CCCCCCC(=O)Nc1ccccc1)NO [SAHA, vorinostat, reference compound]
IR (%) ([2]; Table 18, 100 mg/kg/day, qd x 5, 2 wks, ip): 46%
IR (%) ([2]; Table 22, 200 mg/kg/day, qd x 5, 3 wks, p.o): 26%
maximum tolerated doses (MTDs) [8]: 100 mg/kg

From US8466161B2, “Hydroxamate derivative, a production method for the same, and a pharmaceutical composition comprising the same” (Chong Kun Dang Pharmaceutical Corp., priority 2009, dated 2013)
